Source: ChEMBL document CHEMBL1201861, “Genomics of Drug Sensitity in Cancer screening data, Wellcome Trust Sanger Institute”

Experiments:
Test in all cases: cells
Format in all cases: functional, cell-based
Conditions in all cases: Homo sapiens
NCI-H2196 = system: NCI-H2196;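 further: cell viability assay used as the readout of growth inhibition in NCI-H2196 cells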
Description: SANGER: Inhibition of human NCI-H2196 cell growth in a cell viability assay.

NCI-H1882 = system: NCI-H1882;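 further: growth inhibition of the cell line, determined with a viability assay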
Description: SANGER: Inhibition of human NCI-H1882 cell growth in a cell viability assay.

CPC-N = system: CPC-N;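 further: growth inhibition of CPC-N cells, with a cell viability assay as the readout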
Description: SANGER: Inhibition of human CPC-N cell growth in a cell viability assay.

NCI-H524 = system: NCI-H524;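 further: growth inhibition of human NCI-H524 cells, read out through a cell viability assay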
Description: SANGER: Inhibition of human NCI-H524 cell growth in a cell viability assay.

SNU-C1 = system: SNU-C1;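 further: growth inhibition of SNU-C1 human cells, read out by a cell viability assay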
Description: SANGER: Inhibition of human SNU-C1 cell growth in a cell viability assay.

HCC2157 = system: HCC2157;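 further: growth inhibition of the cancer cell line, read out as cell viability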
Description: SANGER: Inhibition of human HCC2157 cell growth in a cell viability assay.

NCI-H889 = system: NCI-H889;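 further: cell growth inhibition of the cell line, read out with a viability assay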
Description: SANGER: Inhibition of human NCI-H889 cell growth in a cell viability assay.

YT = system: YT
Description: SANGER: Inhibition of human YT cell growth in a cell viability assay.

NCI-H1522 = system: NCI-H1522;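 further: growth inhibition of NCI-H1522 cells, read out with a cell viability assay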
Description: SANGER: Inhibition of human NCI-H1522 cell growth in a cell viability assay.

REH = system: REH;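 further: growth inhibition of REH cells determined with a cell viability read-out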
Description: SANGER: Inhibition of human REH cell growth in a cell viability assay.

EB2 = system: EB2;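 further: growth inhibition of EB2 cells, read out with a cell viability assay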
Description: SANGER: Inhibition of human EB2 cell growth in a cell viability assay.

TE-15 = system: TE-15;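 further: cell viability readout of growth inhibition in TE-15 cells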
Description: SANGER: Inhibition of human TE-15 cell growth in a cell viability assay.

MRK-nu-1 = system: MRK-nu-1;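 further: cell viability assay measuring growth suppression of human MRK-nu-1 cells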
Description: SANGER: Inhibition of human MRK-nu-1 cell growth in a cell viability assay.

CAL-54 = system: CAL-54;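 further: growth inhibition of CAL-54 cells, read out by a viability measurement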
Description: SANGER: Inhibition of human CAL-54 cell growth in a cell viability assay.

MC-IXC = system: MC-IXC;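 further: growth inhibition of MC-IXC cells, read out with a cell viability assay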
Description: SANGER: Inhibition of human MC-IXC cell growth in a cell viability assay.

CAL-85-1 = system: CAL-85-1;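 further: growth inhibition of human CAL-85-1 cells, read out with a cell viability assay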
Description: SANGER: Inhibition of human CAL-85-1 cell growth in a cell viability assay.

SW1573 = system: SW1573;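 further: growth inhibition of SW1573 cells, read out with a cell viability assay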
Description: SANGER: Inhibition of human SW1573 cell growth in a cell viability assay.

KP-4 = system: KP-4;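 further: human KP-4 cells, with growth inhibition read out through a cell viability assay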
Description: SANGER: Inhibition of human KP-4 cell growth in a cell viability assay.

COLO-680N = system: COLO-680N;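 further: cell viability assay used to measure inhibition of COLO-680N cell growth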
Description: SANGER: Inhibition of human COLO-680N cell growth in a cell viability assay.

786-0 = system: 786-0
Description: SANGER: Inhibition of human 786-0 cell growth in a cell viability assay.

HCC 2998 = system: HCC 2998;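 further: growth inhibition of human HCC2998 cells, measured with a cell viability read-out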
Description: SANGER: Inhibition of human HCC2998 cell growth in a cell viability assay.

HCT-116 = system: HCT-116
Description: SANGER: Inhibition of human HCT-116 cell growth in a cell viability assay.

LCLC-97TM1 = system: LCLC-97TM1;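 further: cell viability assay measuring growth inhibition of human LCLC-97TM1 cells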
Description: SANGER: Inhibition of human LCLC-97TM1 cell growth in a cell viability assay.

SK-N-AS = system: SK-N-AS;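 further: growth inhibition of human SK-N-AS cells, measured with a cell viability assay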
Description: SANGER: Inhibition of human SK-N-AS cell growth in a cell viability assay.

NCI-H1651 = system: NCI-H1651;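 further: Read-out is a cell viability assay, with IC50 expressing inhibition of NCI-H1651 cell growth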
Description: SANGER: Inhibition of human NCI-H1651 cell growth in a cell viability assay.

NCI-H2122 = system: NCI-H2122;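 further: growth inhibition of the cells, read out with a cell viability assay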
Description: SANGER: Inhibition of human NCI-H2122 cell growth in a cell viability assay.

DOK = system: DOK;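 further: cell viability assay read-out, values reflect inhibition of cell growth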
Description: SANGER: Inhibition of human DOK cell growth in a cell viability assay.

ChaGo-K-1 = system: ChaGo-K-1;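 further: growth inhibition of ChaGo-K-1 cells, read out with a cell viability assay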
Description: SANGER: Inhibition of human ChaGo-K-1 cell growth in a cell viability assay.

PC-3 = system: PC-3;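 further: cell viability assay measuring growth inhibition of PC-3 cells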
Description: SANGER: Inhibition of human PC-3 cell growth in a cell viability assay.

NCI-H28 = system: NCI-H28;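 further: growth inhibition of human NCI-H28 cells, read out as cell viability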
Description: SANGER: Inhibition of human NCI-H28 cell growth in a cell viability assay.

Ca9-22 = system: Ca9-22;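 further: growth inhibition of Ca9-22 cells, read out with a cell viability assay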
Description: SANGER: Inhibition of human Ca9-22 cell growth in a cell viability assay.

CaR-1 = system: CaR-1;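 further: growth inhibition of human CaR-1 cancer cells, read out with a cell viability assay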
Description: SANGER: Inhibition of human CaR-1 cell growth in a cell viability assay.

OAW-42 = system: OAW-42;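 further: growth inhibition of OAW-42 cells, read out with a cell viability assay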
Description: SANGER: Inhibition of human OAW-42 cell growth in a cell viability assay.

SW1783 = system: SW1783;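 further: cell growth inhibition measured with a viability assay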
Description: SANGER: Inhibition of human SW1783 cell growth in a cell viability assay.

MKN-28 = system: MKN-28;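 further: cell viability assay read-out, IC50 reflects suppression of growth of human MKN-28 cells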
Description: SANGER: Inhibition of human MKN28 cell growth in a cell viability assay.

RO82-W-1 = system: RO82-W-1;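 further: growth inhibition of human RO82-W-1 cells, measured with a cell viability assay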
Description: SANGER: Inhibition of human RO82-W-1 cell growth in a cell viability assay.

MDA-MB-453 = system: MDA-MB-453
Description: SANGER: Inhibition of human MDA-MB-453 cell growth in a cell viability assay.

SBC-5 = system: SBC-5;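 further: cell viability assay read-out, IC50 is the concentration that inhibits growth of the cells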
Description: SANGER: Inhibition of human SBC-5 cell growth in a cell viability assay.

UACC-62 = system: UACC-62;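 further: growth inhibition of human UACC-62 cells, read out by a cell viability assay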
Description: SANGER: Inhibition of human UACC-62 cell growth in a cell viability assay.

EFO-21 = system: EFO-21;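 further: growth inhibition of EFO-21 cells measured with a viability assay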
Description: SANGER: Inhibition of human EFO-21 cell growth in a cell viability assay.

DBTRG-05MG = system: DBTRG-05MG;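 further: cell viability assay measuring growth inhibition of human DBTRG-05MG cells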
Description: SANGER: Inhibition of human DBTRG-05MG cell growth in a cell viability assay.

MHH-ES-1 = system: MHH-ES-1;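 further: cell growth inhibition measured by a cell viability assay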
Description: SANGER: Inhibition of human MHH-ES-1 cell growth in a cell viability assay.

Capan-2 = system: Capan-2;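 further: Capan-2 cell growth inhibition, read out with a viability assay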
Description: SANGER: Inhibition of human Capan-2 cell growth in a cell viability assay.

HuO-3N1 = system: HuO-3N1;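 further: cell viability readout used to measure how strongly compounds suppress proliferation of human HuO-3N1 cells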
Description: SANGER: Inhibition of human HuO-3N1 cell growth in a cell viability assay.

NCI-H1437 = system: NCI-H1437;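 further: growth inhibition of human NCI-H1437 cells, read out by a cell viability assay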
Description: SANGER: Inhibition of human NCI-H1437 cell growth in a cell viability assay.

NCI-H650 = system: NCI-H650;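 further: growth inhibition of NCI-H650 cells, read out by a viability assay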
Description: SANGER: Inhibition of human NCI-H650 cell growth in a cell viability assay.

NCI-H522 = system: NCI-H522;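 further: cell viability assay measuring growth inhibition of human NCI-H522 cells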
Description: SANGER: Inhibition of human NCI-H522 cell growth in a cell viability assay.

NCI-H810 = system: NCI-H810;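 further: IC50 reflects inhibition of cancer cell line growth, read out with a cell viability assay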
Description: SANGER: Inhibition of human NCI-H810 cell growth in a cell viability assay.

OAW-28 = system: OAW-28;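 further: growth inhibition of OAW-28 cells, read out with a cell viability assay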
Description: SANGER: Inhibition of human OAW-28 cell growth in a cell viability assay.

ACHN = system: ACHN;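 further: cell viability read-out used to gauge how strongly growth of human ACHN cells is suppressed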
Description: SANGER: Inhibition of human ACHN cell growth in a cell viability assay.

Huh-7 = system: Huh-7;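 further: HuH-7 cell growth inhibition, read out with a cell viability assay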
Description: SANGER: Inhibition of human HuH-7 cell growth in a cell viability assay.

HCC70 = system: HCC70
Description: SANGER: Inhibition of human HCC70 cell growth in a cell viability assay.

SK-MEL-24 = system: SK-MEL-24
Description: SANGER: Inhibition of human SK-MEL-24 cell growth in a cell viability assay.

T47D = system: T47D
Description: SANGER: Inhibition of human T47D cell growth in a cell viability assay.

COLO-679 = system: COLO-679
Description: SANGER: Inhibition of human COLO-679 cell growth in a cell viability assay.

NCI-H1563 = system: NCI-H1563
Description: SANGER: Inhibition of human NCI-H1563 cell growth in a cell viability assay.

ME-180 = system: ME-180
Description: SANGER: Inhibition of human ME-180 cell growth in a cell viability assay.

NCI-H2347 = system: NCI-H2347
Description: SANGER: Inhibition of human NCI-H2347 cell growth in a cell viability assay.

JEG-3 = system: JEG-3
Description: SANGER: Inhibition of human JEG-3 cell growth in a cell viability assay.

SW948 = system: SW948
Description: SANGER: Inhibition of human SW948 cell growth in a cell viability assay.

SiHa = system: SiHa
Description: SANGER: Inhibition of human SiHa cell growth in a cell viability assay.

COc1cc(C)c(Sc2cnc(NC(=O)c3ccc(CNC(C)C(C)(C)C)cc3)s2)cc1C(=O)N1CCN(C(C)=O)CC1 (stereo not drawn)
IC50 (NCI-H2196): > 10200 nM | IC50 (NCI-H1882): > 10200 nM | IC50 (CPC-N): > 10200 nM | IC50 (NCI-H524): > 10200 nM | IC50 (SNU-C1): > 10200 nM | IC50 (HCC2157): > 10200 nM | IC50 (NCI-H889): > 10200 nM | IC50 (YT): > 10200 nM | IC50 (NCI-H1522): > 10200 nM | IC50 (REH): > 10200 nM | IC50 (EB2): > 10200 nM | IC50 (TE-15): > 10200 nM | IC50 (MRK-nu-1): 8300 nM

Cc1n[nH]c2ccc(-c3cncc(OC[C@@H](N)Cc4c[nH]c5ccccc45)c3)cc12 [A-443654]
IC50 (NCI-H2196): 648 nM | IC50 (NCI-H1882): 428 nM | IC50 (CPC-N): 304 nM | IC50 (NCI-H524): 860 nM | IC50 (SNU-C1): > 1020 nM | IC50 (HCC2157): 561 nM | IC50 (NCI-H889): > 1020 nM | IC50 (YT): > 1020 nM | IC50 (NCI-H1522): 464 nM | IC50 (REH): > 1020 nM | IC50 (EB2): > 1020 nM | IC50 (TE-15): 59.1 nM | IC50 (MRK-nu-1): 104 nM

Cn1c(=O)n(-c2ccc(C(C)(C)C#N)cc2)c2c3cc(-c4cnc5ccccc5c4)ccc3ncc21 [DACTOLISIB]
IC50 (CAL-54): 238 nM | IC50 (MC-IXC): 70.1 nM | IC50 (CAL-85-1): 92.5 nM | IC50 (SW1573): 109 nM | IC50 (KP-4): 7 nM | IC50 (COLO-680N): 111 nM | IC50 (786-0): 22.3 nM | IC50 (HCC 2998): 118 nM | IC50 (HCT-116): 131 nM | IC50 (LCLC-97TM1): 82.9 nM | IC50 (SK-N-AS): 137 nM | IC50 (NCI-H1651): 344 nM | IC50 (NCI-H2122): 201 nM | IC50 (DOK): 56 nM | IC50 (ChaGo-K-1): 328 nM | IC50 (HCC2157): 128 nM | IC50 (PC-3): 5.09 nM | IC50 (NCI-H28): 34.4 nM | IC50 (Ca9-22): 33.6 nM | IC50 (CaR-1): 68.2 nM | IC50 (OAW-42): 73.4 nM | IC50 (SW1783): 110 nM | IC50 (MKN-28): 1090 nM | IC50 (RO82-W-1): 59.9 nM | IC50 (MDA-MB-453): > 2000 nM | IC50 (SBC-5): 83.5 nM | IC50 (UACC-62): 168 nM | IC50 (EFO-21): 288 nM | IC50 (DBTRG-05MG): 198 nM | IC50 (MHH-ES-1): 51.9 nM | IC50 (Capan-2): > 2000 nM | IC50 (HuO-3N1): 67.3 nM | IC50 (NCI-H1437): 80.5 nM | IC50 (NCI-H650): 94.1 nM | IC50 (NCI-H522): 248 nM | IC50 (NCI-H810): 278 nM | IC50 (OAW-28): > 2000 nM | IC50 (ACHN): 357 nM | IC50 (Huh-7): 18.4 nM | IC50 (HCC70): 409 nM | IC50 (SK-MEL-24): 517 nM | IC50 (T47D): 67.9 nM | IC50 (COLO-679): 122 nM | IC50 (NCI-H1563): 105 nM | IC50 (ME-180): 22.4 nM | IC50 (NCI-H2347): 173 nM | IC50 (JEG-3): 84.1 nM | IC50 (SW948): > 2000 nM | IC50 (SiHa): 329 nM

Cc1nc(Nc2ncc(C(=O)Nc3c(C)cccc3Cl)s2)cc(N2CCN(CCO)CC2)n1 [DASATINIB]
IC50 (NCI-H2196): > 1280 nM | IC50 (NCI-H1882): > 1280 nM | IC50 (CPC-N): > 1280 nM | IC50 (NCI-H524): > 1280 nM | IC50 (SNU-C1): > 1280 nM | IC50 (HCC2157): > 1280 nM | IC50 (NCI-H889): > 1280 nM | IC50 (YT): > 1280 nM | IC50 (NCI-H1522): > 1280 nM | IC50 (REH): > 1280 nM | IC50 (EB2): > 1280 nM | IC50 (TE-15): 5.89 nM | IC50 (MRK-nu-1): > 1280 nM

CC(=O)c1c(C)c2cnc(Nc3ccc(N4CCNCC4)cn3)nc2n(C2CCCC2)c1=O [PALBOCICLIB]
IC50 (CAL-54): 2200 nM | IC50 (MC-IXC): > 4000 nM | IC50 (CAL-85-1): > 4000 nM | IC50 (SW1573): > 4000 nM | IC50 (COLO-680N): > 4000 nM | IC50 (786-0): 2150 nM | IC50 (HCC 2998): > 4000 nM | IC50 (HCT-116): > 4000 nM | IC50 (LCLC-97TM1): > 4000 nM | IC50 (SK-N-AS): 388 nM | IC50 (NCI-H1651): > 4000 nM | IC50 (NCI-H2122): > 4000 nM | IC50 (DOK): > 4000 nM | IC50 (ChaGo-K-1): > 4000 nM | IC50 (HCC2157): > 4000 nM | IC50 (PC-3): 1350 nM | IC50 (NCI-H28): > 4000 nM | IC50 (Ca9-22): > 4000 nM | IC50 (CaR-1): > 4000 nM | IC50 (OAW-42): > 4000 nM | IC50 (SW1783): > 4000 nM | IC50 (RO82-W-1): 2620 nM | IC50 (MDA-MB-453): > 4000 nM | IC50 (SBC-5): > 4000 nM | IC50 (UACC-62): > 4000 nM | IC50 (EFO-21): > 4000 nM | IC50 (DBTRG-05MG): > 4000 nM | IC50 (MHH-ES-1): 1180 nM | IC50 (Capan-2): > 4000 nM | IC50 (HuO-3N1): > 4000 nM | IC50 (NCI-H1437): > 4000 nM | IC50 (NCI-H650): > 4000 nM | IC50 (NCI-H522): > 4000 nM | IC50 (NCI-H810): > 4000 nM | IC50 (OAW-28): > 4000 nM | IC50 (Huh-7): > 4000 nM | IC50 (HCC70): > 4000 nM | IC50 (T47D): 1680 nM | IC50 (COLO-679): > 4000 nM | IC50 (NCI-H1563): > 4000 nM | IC50 (ME-180): > 4000 nM | IC50 (NCI-H2347): > 4000 nM | IC50 (JEG-3): > 4000 nM | IC50 (SW948): > 4000 nM | IC50 (SiHa): > 4000 nM
